Experimental data reported in patent US4035566A, “N-trifluoroacetyladriamycin-14-alkanoates and therapeutic compositions containing same” (Sidney Farber Cancer Institute, Inc., priority 1975, dated 1977).
Where two headings read alike, the source gives them in different places. Values belong to the compound of their own block, whether it stands above or below them.

What was measured:
murine L 1210 leukemia [1] = test: in vivo antitumor activity against murine L 1210 leukemia (Geran et al. procedure); parameters: species or system BDF1 male mice; settings: for MILS / Survivors 30da / Survivors 60da: Table III, qd 1-4
Method: (§1) The toxicity and therapeutic effectiveness of the new compounds and active agents of the present invention are shown by in vitro assays and by in vivo evaluations in mice. The in vitro assays measure the growth inhibiting activity of the materials against the CCRF-CEM cell line in culture. The cell line was derived from the peripheral blood and a child with lymphoblastic leukemia as described by Foley et al., Cancer, Volume 18, page 522 et seq. (1965), and the assays were carried out by the procedure of Foley and Lazarus, Biochem. Pharmacol., Volume 16, pages 659 et seq. (1967), the results being reported in terms of the dose in micromoles per liter required to inhibit growth of the cultures by 50% relative to control cultures to which no drug had been added (ID50). The in vivo evaluations were made by preparing a 0.2 to 0.7% by weight solution of the active agent in a 10% by volume aqueous solution of polyoxyethylene sorbitan monooleate (polysorbate 80) as a carrier and injecting the dosage intraperitoneally. The evaluations were made of the antitumor activity against the murine P 388 and murine L 1210 leukemias in BDF1 male mice according to standard National Cancer Institute protocols as set forth by Geran et al., Cancer Chemotherap. Rep., Part 3, Volume 3, pages 1 et seq. (1972), except that a qd 1-4 schedule was used in place of qd 1-9 in order to conserve materials. Evaluations were also made of the antitumor activity against the Ridgway osteogenic sarcoma, a solid tumor, in AKD2 /F1 mice, according to the procedures described in the report by G. J. D'Angio, C. L. Maddock, S. Farber, and B. L. Brown, Cancer Research, 25, 1002-1007 (1965).
(§2) Optimal dosage was determined by testing doses which were at several multiples of 10 milligrams/kilogram of body weight and the optimal dose was used for further tests. Some effectiveness can be observed at dosages ranging from 20 to 70 milligrams/kilogram of body weight, depending upon the particular ester employed.
The murine L 1210 leukemia is generally poorly responsive to chemotherapy. […] The following table summarizes the results of three separate in vivo tests of N-trifluoroacetyladriamycin-14-valerate against murine L 1210 leukemia following the Geran et al. procedure as described above: […]

[2] = toxicity in mice in the in vivo antitumor tests; settings: mouse, in vivo, ip; L1210 test, qd 1-4 schedule; read-out: doses above which toxicity displayed
Method: as §1, §2

CCRF-CEM cell line = test: in vitro growth inhibition of CCRF-CEM cell line in culture (Foley and Lazarus procedure); assay type: cell-based, child; settings: Homo sapiens, read-out: ID50 (dose required to inhibit growth of the cultures by 50% relative to control cultures)
Method: as §1
The following table summarizes the inhibitory activity of various N-trifluoroacetyladriamycin-14-alkanoates as well as other materials when tested in vitro as described in the paragraphs preceding Example 1 above.

murine P 388 leukemia = test: in vivo antitumor activity against murine P 388 leukemia (Geran et al. procedure); parameters: species or system BDF1 male mice; settings: Table II, i.p., qd 1-4; for Survivors 60da: optimal dose mg/kg: acetate 40, isobutyrate 40, valerate 40, caproate 60, caprylate 60; for MILS (Median Increase in Life Span Compared with Untreated Mice) / Survivors 30da: optimal dose mg/kg: adriamycin 4.0, daunomycin 2.0, acetate 40, isobutyrate 40, valerate 40, caproate 60, caprylate 60
Method: as §1, §2
The following table summarizes the in vivo antitumor activity against murine P 388 leukemia tested by the Geran et al. procedure as exampled above: […]

[3] = test system: murine Ridgway osteogenic sarcoma; test: in vivo antitumor activity against murine Ridgway osteogenic sarcoma (D'Angio et al. procedure); parameters: species or system AKD2 /F1 mice; settings: for MILS / Median Survival: Table IV, days 16-19
Method: as §1
The following table summarizes the in vivo antitumor activity of N-trifluoroacetyladriamycin-14-valerate against the murine Ridgway osteogenic sarcoma following the D'Angio et at. procedure as described above:
*Therapy was started on day 16 when the intramuscularly implanted tumor was palpable. Seven mice were used in each group, and all compounds were administered intraperitoneally.
Complete remission in this system is defined as the absence of palpable tumor.

murine L 1210 leukemia [4] = settings: background statement; cited from earlier work
malignant tumors = settings: cited from earlier work; for clinical effectiveness: certain malignant tumors, e.g. induction of remission in acute leukemia
mice = test: toxicity in mice in the in vivo antitumor tests; settings: P 388 test conditions, qd 1-4; for toxicity: dose of 60 mg/kg i.p.
Method: as §1, §2

[5] = L1210 leukemia, same conditions as Table III
[6] = Ridgway tumor, complete remission = absence of palpable tumor

SMILES: CCCCC(=O)OCC(=O)[C@]1(O)Cc2c(O)c3c(c(O)c2[C@@H](O[C@H]2C[C@H](N)[C@H](O)[C@H](C)O2)C1)C(=O)c1c(OC)cccc1C3=O [adriamycin-14-valerate, reference compound]
- effectiveness in prolonging survival of tumor-bearing mice compared with daunomycin (murine L 1210 leukemia [1]; [5]): no more effective than daunomycin
- survivors after 30 days (murine L 1210 leukemia [1]; [5]): no survivors after 30 days
- MTD [2]: > 4 mg/kg

- IC50 (CCRF-CEM cell line; CCRF-CEM cells, Table I): 0.39 µM
SMILES: CCCCCCCCCC(=O)OCC(=O)[C@]1(O)Cc2c(O)c3c(c(O)c2[C@@H](O[C@H]2C[C@H](NC(=O)C(F)(F)F)[C@H](O)[C@H](C)O2)C1)C(=O)c1c(OC)cccc1C3=O [Caprate, N-Trifluoroacetyladriamycin-14-caprate]

SMILES: CCCCC(=O)OCC(=O)[C@]1(O)Cc2c(O)c3c(c(O)c2[C@@H](O[C@H]2C[C@H](NC(=O)C(F)(F)F)[C@H](O)[C@H](C)O2)C1)C(=O)c1c(OC)cccc1C3=O [N-Trifluoroacetyladriamycin-14-valerate]
- IC50 (CCRF-CEM cell line; CCRF-CEM cells, Table I): 0.24 µM
- Survivors 60da (murine P 388 leukemia): 3/5
- MILS (Median Increase in Life Span Compared with Untreated Mice) (murine P 388 leukemia): 429%
- Survivors 30da (murine P 388 leukemia): 4/5
- MILS (murine L 1210 leukemia [1]; first test, 60.0 mg/kg i.p.): > 445%
- Survivors 30da (murine L 1210 leukemia [1]; first test, 60.0 mg/kg i.p.): 4/5
- Survivors 60da (murine L 1210 leukemia [1]; first test, 60.0 mg/kg i.p.): 4/5
- MILS (murine L 1210 leukemia [1]; first test, 70.0 mg/kg i.p.): > 445%
- Survivors 30da (murine L 1210 leukemia [1]; first test, 70.0 mg/kg i.p.): 4/5
- Survivors 60da (murine L 1210 leukemia [1]; first test, 70.0 mg/kg i.p.): 4/5
- MILS (murine L 1210 leukemia [1]; second test, 50.0 mg/kg i.p.): > 445%
- Survivors 30da (murine L 1210 leukemia [1]; second test, 50.0 mg/kg i.p.): 4/7
- Survivors 60da (murine L 1210 leukemia [1]; second test, 50.0 mg/kg i.p.): 4/7
- MILS (murine L 1210 leukemia [1]; second test, 60.0 mg/kg i.p.): > 445%
- Survivors 30da (murine L 1210 leukemia [1]; second test, 60.0 mg/kg i.p.): 3/6
- Survivors 60da (murine L 1210 leukemia [1]; second test, 60.0 mg/kg i.p.): 3/6
- MILS (murine L 1210 leukemia [1]; third test, 50.0 mg/kg i.p.): > 400%
- Survivors 30da (murine L 1210 leukemia [1]; third test, 50.0 mg/kg i.p.): 5/7
- Survivors 60da (murine L 1210 leukemia [1]; third test, 50.0 mg/kg i.p.): 5/7
- MILS (murine L 1210 leukemia [1]; third test, 60.0 mg/kg i.p.): > 400%
- Survivors 30da (murine L 1210 leukemia [1]; third test, 60.0 mg/kg i.p.): 6/7
- Survivors 60da (murine L 1210 leukemia [1]; third test, 60.0 mg/kg i.p.): 6/7
- gross number of complete remissions compared with adriamycin [3, 6]: the gross number of complete remissions was greater
- median duration of complete remission compared with adriamycin [3, 6]: the median duration of complete remission was longer
- MILS ([3]; 50.0 mg/kg i.p.): 130%
- Median Survival ([3]; 50.0 mg/kg i.p.): 84.0 days
- MILS ([3]; 60.0 mg/kg i.p.): 122%
- Median Survival ([3]; 60.0 mg/kg i.p.): 81.0 days

SMILES: COc1cccc2c1C(=O)c1c(O)c3c(c(O)c1C2=O)C[C@@](O)(C(C)=O)C[C@@H]3O[C@H]1C[C@H](N)[C@H](O)[C@H](C)O1 [Daunomycin, reference compound]
- IC50 (CCRF-CEM cell line; CCRF-CEM): 0.035 µM
- MILS (Median Increase in Life Span Compared with Untreated Mice) (murine P 388 leukemia): 91%
- Survivors 30da (murine P 388 leukemia): 0/6
- effectiveness in prolonging survival of mice bearing L 1210 leukemia (general statement) (murine L 1210 leukemia [4]): much less so
- clinical effectiveness (malignant tumors): effective clinically against certain malignant tumors
- toxicities in chemotherapy (malignant tumors; in vivo): a variety of toxicities which limit the effectiveness of the compounds

- IC50 (CCRF-CEM cell line; CCRF-CEM cells, Table I): 0.59 µM
SMILES: COc1cccc2c1C(=O)c1c(O)c3c(c(O)c1C2=O)C[C@@](O)(C(=O)COC(=O)C(C)(C)C)C[C@@H]3O[C@H]1C[C@H](NC(=O)C(F)(F)F)[C@H](O)[C@H](C)O1 [Pivalate, N-Trifluoroacetyladriamycin-14-pivalate]

SMILES: CCCCCC(=O)OCC(=O)[C@]1(O)Cc2c(O)c3c(c(O)c2[C@@H](O[C@H]2C[C@H](NC(=O)C(F)(F)F)[C@H](O)[C@H](C)O2)C1)C(=O)c1c(OC)cccc1C3=O [Caproate, N-Trifluoroacetyladriamycin-14-caproate]
- IC50 (CCRF-CEM cell line; CCRF-CEM cells, Table I): 0.33 µM
- Survivors 60da (murine P 388 leukemia): 1/5
- MILS (Median Increase in Life Span Compared with Untreated Mice) (murine P 388 leukemia): 271%
- Survivors 30da (murine P 388 leukemia): 5/5
- toxicity (mice): no toxicity was observed

SMILES: CCCCCCCC(=O)OCC(=O)[C@]1(O)Cc2c(O)c3c(c(O)c2[C@@H](O[C@H]2C[C@H](NC(=O)C(F)(F)F)[C@H](O)[C@H](C)O2)C1)C(=O)c1c(OC)cccc1C3=O [Caprylate, N-Trifluoroacetyladriamycin-14-caprylate]
- IC50 (CCRF-CEM cell line; CCRF-CEM cells, Table I): 0.36 µM
- Survivors 60da (murine P 388 leukemia): 1/5
- MILS (Median Increase in Life Span Compared with Untreated Mice) (murine P 388 leukemia): 243%
- Survivors 30da (murine P 388 leukemia): 5/5
- toxicity (mice): no toxicity was observed

SMILES: COc1cccc2c1C(=O)c1c(O)c3c(c(O)c1C2=O)C[C@@](O)(C(=O)COC(=O)C(C)C)C[C@@H]3O[C@H]1C[C@H](NC(=O)C(F)(F)F)[C@H](O)[C@H](C)O1 [Isobutyrate, N-Trifluoroacetyladriamycin-14-isobutyrate]
- IC50 (CCRF-CEM cell line; CCRF-CEM cells, Table I): 0.28 µM
- Survivors 60da (murine P 388 leukemia): 1/5
- MILS (Median Increase in Life Span Compared with Untreated Mice) (murine P 388 leukemia): 150%
- Survivors 30da (murine P 388 leukemia): 3/5

SMILES: COc1cccc2c1C(=O)c1c(O)c3c(c(O)c1C2=O)C[C@@](O)(C(=O)COC(C)=O)C[C@@H]3O[C@H]1C[C@H](NC(=O)C(F)(F)F)[C@H](O)[C@H](C)O1 [Acetate, N-trifluoroacetyladriamycin-14-acetate]
- IC50 (CCRF-CEM cell line; CCRF-CEM cells, Table I): 0.2 µM
- Survivors 60da (murine P 388 leukemia): 0/5
- MILS (Median Increase in Life Span Compared with Untreated Mice) (murine P 388 leukemia): 173%
- Survivors 30da (murine P 388 leukemia): 2/5

SMILES: COc1cccc2c1C(=O)c1c(O)c3c(c(O)c1C2=O)C[C@@](O)(C(=O)CO)C[C@@H]3O[C@H]1C[C@H](N)[C@H](O)[C@H](C)O1 [Adriamycin]
- IC50 (CCRF-CEM cell line; CCRF-CEM): 0.066 µM
- MILS (Median Increase in Life Span Compared with Untreated Mice) (murine P 388 leukemia): 132%
- Survivors 30da (murine P 388 leukemia): 0/6
- MILS (murine L 1210 leukemia [1]; first test, 4.0 mg/kg i.p.): 45%
- Survivors 30da (murine L 1210 leukemia [1]; first test, 4.0 mg/kg i.p.): 0/5
- MILS (murine L 1210 leukemia [1]; second test, 4.0 mg/kg i.p.): 54%
- Survivors 30da (murine L 1210 leukemia [1]; second test, 4.0 mg/kg i.p.): 1/5
- Survivors 60da (murine L 1210 leukemia [1]; second test, 4.0 mg/kg i.p.): 0/5
- MILS (murine L 1210 leukemia [1]; third test, 4.0 mg/kg i.p.): 42%
- Survivors 30da (murine L 1210 leukemia [1]; third test, 4.0 mg/kg i.p.): 0/7
- MILS ([3]; 3.0 mg/kg i.p.): 40%
- Median Survival ([3]; 3.0 mg/kg i.p.): 51.0 days
- dose at and above which toxic (mice; i.p.): ≥ 4 mg/kg
- effectiveness in prolonging survival of mice bearing L 1210 leukemia (general statement) (murine L 1210 leukemia [4]): only moderately effective
- clinical effectiveness (malignant tumors): effective clinically against certain malignant tumors
- toxicities in chemotherapy (malignant tumors; limiting long-term use): a variety of toxicities which limit the effectiveness of the compounds
- clinical efficacy against certain solid tumors (malignant tumors; solid tumors): has shown clinical efficacy against certain solid tumors

- IC50 (CCRF-CEM cell line; CCRF-CEM cells, Table I): 0.3 µM
SMILES: CCC(=O)OCC(=O)[C@]1(O)Cc2c(O)c3c(c(O)c2[C@@H](O[C@H]2C[C@H](NC(=O)C(F)(F)F)[C@H](O)[C@H](C)O2)C1)C(=O)c1c(OC)cccc1C3=O [Propionate, N-Trifluoroacetyladriamycin-14-propionate]
